Source: patent US20200399242A1, “NOVEL COMPOUNDS” (INFLAZOME LIMITED, priority 2018, published 2020)
pIC50: −log10 of the molar value. Structures can show the parent of a compound that is named as a salt.

Molecular target: T1, NLRP3 (Homo sapiens, UniProt Q96P20)
T1 construct: Seed THP-1 cells (25,000 cells/well) containing 1.0 μg/ml LPS in 40 μl of RPMI medium; host or cells: THP-1 cells
Assay: THP-1 cells pyroptosis assay (LPS-primed, nigericin-triggered, resazurin read-out)
Format: cell-based
Settings: 1 μg/ml LPS, compound 3 hrs, nigericin 5 μM 1 hr, resazurin viability
Method: THP-1 cells (ATCC #TIB-202) were grown in RPMI containing L-glutamine (Gibco #11835) supplemented with 1 mM sodium pyruvate (Sigma #S8636) and penicillin (100 units/ml)/streptomycin (0.1 mg/ml) (Sigma #P4333) in 10% Fetal Bovine Serum (FBS) (Sigma #F0804). The cells were routinely passaged and grown to confluency (˜10^6 cells/ml). On the day of the experiment, THP-1 cells were harvested and resuspended into RPMI medium (without FBS). The cells were then counted and viability (>90%) checked by Trypan blue (Sigma #T8154). Appropriate dilutions were made to give a concentration of 625,000 cells/ml. To this diluted cell solution was added LPS (Sigma #L4524) to give a 1 μg/ml Final Assay Concentration (FAC). 40 μl of the final preparation was aliquoted into each well of a 96-well plate. The plate thus prepared was used for compound screening. The following method step-by-step assay was followed for compound screening. • 1. Seed THP-1 cells (25,000 cells/well) containing 1.0 μg/ml LPS in 40 μl of RPMI medium (without FBS) in 96-well, black walled, clear bottom cell culture plates coated with poly-D-lysine (VWR #734-0317) • 2. Add 5 μl compound (8 points half-log dilution, with 10 μM top dose) or vehicle (DMSO 0.1% FAC) to the appropriate wells • 3. Incubate for 3 hrs at 37° C., 5% CO2 • 4. Add 5 μl nigericin (Sigma #N7143) (FAC 5 μM) to all wells • 5. Incubate for 1 hr at 37° C., 5% CO2 • 6. At the end of the incubation period, spin plates at 300×g for 3 mins and remove supernatant • 7. Then add 50 μl of resazurin (Sigma #R7017) (FAC 100 μM resazurin in RPMI medium without FBS) and incubate plates for a further 1-2 hrs at 37° C. and 5% CO2 • 8. Plates were read in an Envision reader at Ex 560 nm and Em 590 nm • 9. IC50 data is fitted to a non-linear regression equation (log inhibitor vs response-variable slope 4-parameters) The results of the pyroptosis assay are summarised in Table 1 below as THP IC50.

T1 sequence (Q96P20 whole entry): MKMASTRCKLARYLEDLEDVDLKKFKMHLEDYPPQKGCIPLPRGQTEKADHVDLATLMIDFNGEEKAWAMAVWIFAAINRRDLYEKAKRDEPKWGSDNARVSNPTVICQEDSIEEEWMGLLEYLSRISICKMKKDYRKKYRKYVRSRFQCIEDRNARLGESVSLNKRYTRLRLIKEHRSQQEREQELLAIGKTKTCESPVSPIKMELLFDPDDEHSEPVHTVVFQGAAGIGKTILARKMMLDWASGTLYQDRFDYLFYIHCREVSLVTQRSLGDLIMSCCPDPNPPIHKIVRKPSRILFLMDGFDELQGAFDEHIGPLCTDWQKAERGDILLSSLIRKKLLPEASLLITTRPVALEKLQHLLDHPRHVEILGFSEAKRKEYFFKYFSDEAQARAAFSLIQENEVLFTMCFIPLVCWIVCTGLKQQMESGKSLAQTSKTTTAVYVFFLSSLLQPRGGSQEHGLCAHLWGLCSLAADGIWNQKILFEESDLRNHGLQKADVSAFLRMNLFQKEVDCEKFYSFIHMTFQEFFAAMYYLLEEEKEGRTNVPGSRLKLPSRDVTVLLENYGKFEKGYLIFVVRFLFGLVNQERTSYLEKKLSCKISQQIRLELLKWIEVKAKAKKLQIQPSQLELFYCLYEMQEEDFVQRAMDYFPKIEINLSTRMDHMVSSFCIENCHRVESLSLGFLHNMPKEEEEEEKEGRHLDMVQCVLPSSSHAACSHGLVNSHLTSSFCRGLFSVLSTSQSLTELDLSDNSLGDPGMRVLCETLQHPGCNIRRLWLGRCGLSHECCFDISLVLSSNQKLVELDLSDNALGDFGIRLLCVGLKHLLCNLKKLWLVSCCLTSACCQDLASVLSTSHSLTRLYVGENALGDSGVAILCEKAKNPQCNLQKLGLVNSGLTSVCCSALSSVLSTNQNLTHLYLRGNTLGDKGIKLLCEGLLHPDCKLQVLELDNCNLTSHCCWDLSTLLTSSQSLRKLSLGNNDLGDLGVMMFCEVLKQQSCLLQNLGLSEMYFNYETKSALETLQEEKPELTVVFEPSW

Row | SMILES | pIC50
1 | COc1cc(-c2cc(F)cc(C(C)C)c2CC(=O)NS(=O)(=O)c2ccc(=O)n(C)c2)ccn1 [Example 1, 2-(4-Fluoro-2-isopropyl-6-(2-methoxypyridin-4-yl)phenyl)-N-((1-methyl-6-oxo-,6-dihydropyridin-3-yl)sulfonyl)acetamide, potassium salt] | 5.00 to 5.30
2 | COc1cc(-c2cc(F)cc(C(C)C)c2CC(=O)NS(=O)(=O)c2cn(C)c(=O)n(C)c2=O)ccn1 [Example 3, N-((1,3-Dimethyl-2,4-dioxo-1,2,3,4-tetrahydropyrimidin-5-yl)sulfonyl)-2-(4-fluoro-2-isopropyl-6-(2-methoxypyridin-4-yl)phenyl) acetamide] | ≥ 6.00
3 | COc1cc(-c2cc(F)cc(C(C)C)c2CC(=O)NS(=O)(=O)c2ccc(=O)n(C(C)C)c2)ccn1 [Example 2, 2-(4-Fluoro-2-isopropyl-6-(2-methoxypyridin-4-yl)phenyl)-N-((1-isopropyl-6-oxo-1,6-dihydropyridin-3-yl)sulfonyl)acetamide, potassium salt] | 5.30 to 6.00
